Literature values as cited in patent publication US4898737A, “Controlled absorption pharmaceutical composition” (Elan Corporation plc, priority 1983, dated 1990).

For `CC(C)NCC(O)COc1cccc2ccccc12` (stereo not drawn) [propranolol, 1-(isopropylamino)-3-(1-naphthyloxy)-2-propanol], the “time of peak plasma concentrations” value (after a single oral dose) is listed as “one to two”, the metabolism (oral) is listed as “extensively and rapidly metabolised” and the urinary excretion (oral) is listed as “excreted in the urine as free and conjugated propranolol and as metabolites”.
